The source of these data is patent US20140242099A1 (Synta Pharmaceuticals Corp., priority 2011, published 2014).

Assay [1] relates to IL-2 production in Jurkat T-cells. The experiment in a line: Inhibition of IL-2 production, Jurkat/PHA/1% FBS, ELISA. The assay is classed as cell-based. To be noted: Homo sapiens, read-out: IL-2 inhibition Jurkat/PHA/1% FBS IC50 (nM), PHA 2.5 μg/mL, 20 hours. As to the method: JurkaT-cells were placed in a 96 well plate (0.5 million cells per well in 1% FBS medium), and then a test compound of this invention was added at different concentrations. After 10 minutes, the cells were activated with PHA (final concentration 2.5 μg/mL) and incubated for 20 hours at 37° C. under 5% CO2. The final volume was 200 μL. Following incubation, the cells were centrifuged, and the supernatants collected and stored at −70° C. prior to assaying for IL-2 production. A commercial ELISA kit (IL-2 Eli-pair, Diaclone Research, Besancon, France) was used to detect production of IL-2, from which dose response curves were obtained. The IC50 value was calculated as the concentration at which 50% of maximum IL-2 production after stimulation was inhibited versus a non-stimulation control.
In general terms: ELISA stands for enzyme-linked immunosorbent assay.

Assay [2] addresses T1, ICRAC current (CRAC ion channels), RBL-2H3 cells (Rattus norvegicus, UniProt Q5M848).
T1 construct: endogenous in cells; host or cells: RBL-2H3 (rat basophilic leukemia cells)
As to the kind of experiment: Automated patch clamp (Qpatch) inhibition of ICRAC current in RBL-2H3 cells. The assay is classed as cell-based. To be noted: compound at 100 nM, method calculates % ICRAC inhibition. Here is the method:
Automated patch clamp experiments are conducted with the QPatch 16 (Sophion Bioscience, Ballerup, Denmark) at room temperature (21-25° C.). Immediately following the establishment of giga-seal whole-cell configuration, the cells membrane potential is clamped at 0 mV. Voltage ramps of 50 ms duration spanning the voltage range of −100 to +100 mV are then stimulated at a rate of 0.33 Hz. Currents are filtered at 2.9 kHz and digitized at 200 μs intervals. Capacitive currents and series resistance are determined and corrected before each voltage ramp using the automatic capacitance compensation.
RBL-2H3 are grown in DMEM media supplemented with 10% fetal bovine serum, penicillin 100 U/ml and streptomycin […] in an atmosphere of 95% air/5% CO2. Cells are grown to confluence in 175 cm^2 tissue culture flask. On the experimental day, cells harvested with 0.25% trypsin/0.02% EDTA and resuspended in extracellular solution at density of 5×10^6 cells/ml.
The intracellular solution contains Cs-Glutamate 90 mM; NaCl 8 mM; MgCl2 3 mM; CsCl 20 mM; CsBAPTA 20 mM; HEPES 10 mM; InsP3 0.02 mM; pH=7.2 adjusted with CsOH.
The extracellular solution contains NMDGCl 120 mM; KCl 5.4 mM; CsCl 10 mM; CaCl2 10 mM; MgCl2 1 mM; HEPES 10 mM; Glucose 5.5 mM; at pH=7.4 adjusted with HCl.
ICRAC currents are measured using 50 msec voltage ramps between −100 mV to +100 mV. The voltage ramps are stimulated every 3 seconds for at least 570 seconds. The maximum ICRAC current is allowed to develop for at least 135 seconds. Compounds diluted in extracellular solutions are then applied twice, 30 seconds apart. After incubating the cells with compound for 435 seconds, a reference solution is applied at the end of the experiment. The reference solution is a Ca^2+ free extracellular solution.
Off-line analysis with the Qpatch software is used to plot the current value at −80 mV for each ramp trace against time. The resulting current versus time data is then exported into a Microsoft Excel spreadsheet. The ICRAC membrane currents are separated from the cells basal background currents by either subtracting out the average membrane current values during the first 1-3 traces, or the average membrane current values obtained with the reference solution at the end of the experiment. The % ICRAC inhibition in each cell is calculated by comparing the amount of current just prior to the first compound addition to the amount of current after the cells has been perfused with the compound for at least 400 seconds.

T1 sequence (Q5M848 whole entry): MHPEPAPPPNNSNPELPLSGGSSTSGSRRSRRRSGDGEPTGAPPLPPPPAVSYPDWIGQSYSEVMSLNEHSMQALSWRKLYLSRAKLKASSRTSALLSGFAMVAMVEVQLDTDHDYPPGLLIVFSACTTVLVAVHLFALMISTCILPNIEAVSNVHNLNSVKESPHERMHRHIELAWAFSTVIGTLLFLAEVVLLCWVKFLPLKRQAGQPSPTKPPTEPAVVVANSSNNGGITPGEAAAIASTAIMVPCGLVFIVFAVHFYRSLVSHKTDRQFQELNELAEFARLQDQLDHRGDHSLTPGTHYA

As to `Cc1ccc(-c2nc(-c3ccc(C(=O)Nc4c(F)cccc4F)cc3)c(C)s2)cn1` [Compound 1], the IC50 in assay [1] was 27 nM. The inhibition at 0.1 µM in assay [2] was 80%.
Turning to `Cc1cc(C)c(NC(=O)c2ccc(-c3cc(-c4nnn(C)n4)ccc3Cl)cc2)cn1` [Compound 2, 2′-chloro-N-(4,6-dimethylpyridin-3-yl)-5′-(2-methyl-2H-tetrazol-5-yl)-[1,1′-biphenyl]-4-carboxamide], the IC50 in assay [1] amounted to 33 nM. The inhibition at 0.1 µM in assay [2] is 61%.
For `Cc1cc(C)c(NC(=O)c2ccc(-c3cc(-c4nnn(C)n4)ccc3C)cc2)cn1` [Compound 3, N-(4,6-dimethylpyridin-3-yl)-2′-methyl-5′-(2-methyl-2H-tetrazol-5-yl)-[1,1′-biphenyl]-4-carboxamide], in that order: 46 nM and 36%.
Consider `Cc1ccncc1C(=O)Nc1ccc(-c2cc(-c3nnn(C)n3)ccc2Cl)cn1` [Compound 4, N-(5-(2-chloro-5-(2-methyl-2H-tetrazol-5-yl)phenyl)pyridin-2-yl)-4-methylnicotinamide], for which, in assay [2], the inhibition at 0.1 µM was 36%.
As to `CCc1sc(-c2cnc(C)cn2)nc1-c1ccc(C(=O)Nc2cnc(C)cc2C)cc1` [Compound 5], the IC50 in assay [1] is 32 nM. In addition, the inhibition at 0.1 µM in assay [2] was 40%.
For `CCc1sc(-c2cc(C)on2)nc1-c1ccc(C(=O)Nc2cncnc2C)cc1` [Compound 6], in that order: 38 nM and 93%.
The like results for `Cn1cc(-c2ccc(Cl)c(-c3cnc(NC(=O)c4cccc(F)c4F)cn3)c2)cn1` [Compound 7, N-(5-(2-chloro-5-(1-methyl-1H-pyrazol-4-yl)phenyl)pyrazin-2-yl)-2,3-difluorobenzamide] were, in that order, 10 nM and 98%.
The like results for `Cn1cc(-c2ccc(Cl)c(-c3cnc(NC(=O)c4ccc(F)cc4F)cn3)c2)cn1` [Compound 8, N-(5-(2-chloro-5-(1-methyl-1H-pyrazol-4-yl)phenyl)pyrazin-2-yl)-2,4-difluorobenzamide] were, in that order, 14 nM and 82%.
For `CCc1sc(-c2cc(C)on2)nc1-c1ccc(NC(=O)c2cncc(Cl)c2C)nc1` [Compound 9], in assay [1], the IC50 turned out to be 10 nM. Besides, in assay [2], the inhibition at 0.1 µM is 73%.

As a reminder, the inhibition is the share of the control response that was lost under treatment.
